Data published in ChEMBL document CHEMBL2046294, “Lipo-γ-AApeptides as a new class of potent and broad-spectrum antimicrobial agents” (J Med Chem, 2012).
Converted amounts (≈) assume the structure as drawn. The source made the active and inactive calls. The rule behind the calls is not given here.

How the values were obtained:
Escherichia coli [1] = test: Antibacterial activity against Escherichia coli JM109 after 24 hrs by broth micro-dilution method; assay type: functional; details: JM109, 24 h
Klebsiella pneumoniae = test: Antibacterial activity against Klebsiella pneumoniae ATCC 13383 after 24 hrs by broth micro-dilution method; assay type: functional; details: ATCC 13383, 24 h
Pseudomonas aeruginosa = test: Antibacterial activity against multidrug-resistant Pseudomonas aeruginosa ATCC 27853 after 24 hrs by broth micro-dilution method; assay type: functional; details: ATCC 27853, 24 h
Bacillus subtilis [2] = test: Antibacterial activity against Bacillus subtilis BR151 after 24 hrs by broth micro-dilution method; assay type: functional; details: BR151, 24 h
[3] = tested on: Staphylococcus epidermidis; test: Antibacterial activity against multidrug-resistant Staphylococcus epidermidis RP62A after 24 hrs by broth micro-dilution method; assay type: functional
Enterococcus faecalis = test: Antibacterial activity against vancomycin-resistant Enterococcus faecalis ATCC 700802 after 24 hrs by broth micro-dilution method; assay type: functional; details: ATCC 700802, 24 h
Staphylococcus aureus [4] = test: Antibacterial activity against methicillin-resistant Staphylococcus aureus ATCC 33592 after 24 hrs by broth micro-dilution method; assay type: functional; details: ATCC 33592, 24 h
Candida albicans = test: Antifungal activity against Candida albicans ATCC 10231 after 48 hrs by broth micro-dilution method; assay type: functional; details: ATCC 10231, 48 h
[5] = Toxicity in human RBC assessed as hemolysis after 1 hr; assay type: cell-based, Erythrocyte; details: for HC10: erythrocyte, 1 h; for HC50 at 1 h: red blood cells
[6] = Selectivity ratio of HC50 for human RBC to MIC for methicillin-resistant Staphylococcus aureus ATCC 33592; assay type: functional
Staphylococcus aureus [7] = test: Antibacterial activity against methicillin-resistant Staphylococcus aureus ATCC 33592 assessed as lipid membrane depolarization after 10 mins by DiSC3-5 staining-based fluorescence analysis; assay type: functional, organism-based
Escherichia coli [8] = test: Antibacterial activity against Escherichia coli JM109 assessed as membrane disruption at 10 ug/ml after 2 hrs by DAPI staining-based fluorescence microscopic analysis; assay type: functional, organism-based
Escherichia coli [9] = test: Antibacterial activity against Escherichia coli JM109 assessed as membrane disruption at 10 ug/ml after 2 hrs by propidium iodide staining-based fluorescence microscopic analysis; assay type: functional, organism-based
Bacillus subtilis [10] = test: Antibacterial activity against Bacillus subtilis BR151 assessed as membrane disruption at 10 ug/ml after 2 hrs by DAPI staining-based fluorescence microscopic analysis; assay type: functional, organism-based
Bacillus subtilis [11] = test: Antibacterial activity against Bacillus subtilis BR151 assessed as membrane disruption at 10 ug/ml after 2 hrs by propidium iodide staining-based fluorescence microscopic analysis; assay type: functional, organism-based
Escherichia coli [12] = test: Antibacterial activity against Escherichia coli JM109 assessed as loss membrane potential at 10 ug/ml; assay type: functional, organism-based
Bacillus subtilis [13] = test: Antibacterial activity against Bacillus subtilis BR151 assessed as loss membrane potential at 10 ug/ml; assay type: functional, organism-based
Staphylococcus aureus [14] = test: Antibacterial activity against methicillin-resistant Staphylococcus aureus ATCC 33592 grown on half-MIC concentration for 17 passages measured after 17 days by broth-microdilution method; assay type: functional, organism-based
N2a [15] = test: Toxicity against mouse N2A cells expressing amyloid precursor protein up to 50 ug/ml after 36 hrs by MTT assay; assay type: cell-based
N2a [16] = test: Toxicity against mouse N2A cells expressing amyloid precursor protein up to 100 ug/ml after 36 hrs by MTT assay; assay type: cell-based
[17] = Selectivity for Escherichia coli JM109 over mouse N2A cells expressing amyloid precursor protein
[18] = Selectivity for Klebsiella pneumoniae ATCC 13383 over mouse N2A cells expressing amyloid precursor protein
[19] = Selectivity for Bacillus subtilis BR151 over mouse N2A cells expressing amyloid precursor protein
Staphylococcus aureus [20] = test: Resistance ratio, MIC for methicillin-resistant Staphylococcus aureus ATCC 33592 grown on half-MIC concentration for 3 passages to MIC for methicillin-resistant Staphylococcus aureus ATCC 33592 after 24 hrs; assay type: functional

Work on `CCCCCCCC/C=C\CCCCCCCC(=O)N[C@@H](CCCCN)CN(CC(N)=O)C(=O)CCCN` yielded an MIC (Escherichia coli [1]) of 2.5 µg/mL (≈ 4.65 µM), an MIC (Klebsiella pneumoniae) of 35 µg/mL (≈ 65.1 µM) and an MIC (Pseudomonas aeruginosa) of 3 µg/mL (≈ 5.58 µM). For the same compound, the MIC (Bacillus subtilis [2]) was 2 µg/mL (≈ 3.72 µM), the MIC [3] was 2 µg/mL (≈ 3.72 µM) and the MIC (Enterococcus faecalis) was 2.5 µg/mL (≈ 4.65 µM). It also gave an MIC (Staphylococcus aureus [4]) of 4 µg/mL (≈ 7.44 µM), an MIC (Candida albicans) of 2 µg/mL (≈ 3.72 µM) and an HC10 [5] of 40 µg/mL. For the same compound, the HC50 at 1 h [5] was 100 µg/mL, the Ratio [6] was 25 and the Activity (Staphylococcus aureus [7]) was “Active”.
In the case of `CCCCCCCCCCCCCCCC(=O)N[C@@H](C)CN(CC(=O)N[C@@H](C)CN(CC(=O)N[C@@H](CC(C)C)CN(CC(=O)N[C@@H](CC(C)C)CN(CC(=O)N[C@@H](CC(C)C)CN(CC(N)=O)C(=O)CCCN)C(=O)CCCN)C(=O)CCCN)C(C)=O)C(C)=O`, the MIC (Escherichia coli [1]) was 2.5 µg/mL (≈ 1.94 µM), the MIC (Klebsiella pneumoniae) was 5 µg/mL (≈ 3.87 µM) and the MIC (Pseudomonas aeruginosa) was 5 µg/mL (≈ 3.87 µM). It also gave an MIC (Bacillus subtilis [2]) of 2.5 µg/mL (≈ 1.94 µM), an MIC [3] of 4 µg/mL (≈ 3.1 µM) and an MIC (Enterococcus faecalis) of 5 µg/mL (≈ 3.87 µM). The MIC (Staphylococcus aureus [4]) was 4 µg/mL (≈ 3.1 µM), the MIC (Candida albicans) was 5 µg/mL (≈ 3.87 µM) and the HC10 [5] was 60 µg/mL. The HC50 at 1 h [5] was over 500 µg/mL, the Ratio [6] was over 125 and the Activity (Escherichia coli [8]) was “Active”. The Activity (Escherichia coli [9]) was “Active”, the Activity (Bacillus subtilis [10]) was “Active” and the Activity (Bacillus subtilis [11]) was “Active”. For the same compound, the Activity (Escherichia coli [12]) was “Active”, the Activity (Bacillus subtilis [13]) was “Active” and the Activity (Staphylococcus aureus [7]) was “Active”. The Activity (Staphylococcus aureus [14]) was “Active”, the Activity (N2a [15]) was “Non-toxic” and the Activity (N2a [16]) was 50%. For the same compound, the Ratio [17] was 10, the Ratio [18] was 10 and the Ratio [19] was 10.
`CCCCCCCCCCCCCCCC(=O)N[C@@H](C)CN(CC(=O)N[C@@H](C)CN(CC(=O)N[C@@H](Cc1ccccc1)CN(CC(=O)N[C@@H](Cc1ccccc1)CN(CC(=O)N[C@@H](Cc1ccccc1)CN(CC(N)=O)C(=O)CC(=O)O)C(=O)CC(=O)O)C(=O)CC(=O)O)C(C)=O)C(C)=O` gave an MIC (Escherichia coli [1]) of over 100 µg/mL, an MIC (Klebsiella pneumoniae) of over 100 µg/mL and an MIC (Pseudomonas aeruginosa) of over 100 µg/mL. For the same compound, the MIC (Bacillus subtilis [2]) was over 100 µg/mL, the MIC [3] was over 100 µg/mL and the MIC (Enterococcus faecalis) was over 100 µg/mL. It also gave an MIC (Staphylococcus aureus [4]) of over 100 µg/mL, an MIC (Candida albicans) of over 100 µg/mL and an HC10 [5] of 200 µg/mL. For the same compound, the HC50 at 1 h [5] was over 500 µg/mL.
`CC(=O)N(CC(=O)N[C@@H](C)CN(CC(=O)N[C@@H](CC(C)C)CN(CC(=O)N[C@@H](CC(C)C)CN(CC(=O)N[C@@H](CC(C)C)CN(CC(N)=O)C(=O)CCCN)C(=O)CCCN)C(=O)CCCN)C(C)=O)C[C@H](C)N` gave an MIC (Escherichia coli [1]) of over 100 µg/mL, an MIC (Klebsiella pneumoniae) of over 100 µg/mL and an MIC (Pseudomonas aeruginosa) of over 100 µg/mL. It also gave an MIC (Bacillus subtilis [2]) of over 100 µg/mL, an MIC [3] of over 100 µg/mL and an MIC (Enterococcus faecalis) of over 100 µg/mL. It also gave an MIC (Staphylococcus aureus [4]) of over 100 µg/mL, an MIC (Candida albicans) of over 100 µg/mL and an HC10 [5] of 120 µg/mL. It also gave an HC50 at 1 h [5] of over 500 µg/mL.
Compound `CCn1cc(C(=O)O)c(=O)c2cc(F)c(N3CCNCC3)cc21` [NORFLOXACIN] has a Ratio (Staphylococcus aureus [20]) of over 20.
Work on `CCCCCCCC/C=C\CCCCCCCC(=O)N[C@@H](CCCCN)CN(CC(=O)N[C@@H](CCCCN)CN(CC(N)=O)C(=O)CCCN)C(=O)CCCN` yielded an MIC (Escherichia coli [1]) of 10 µg/mL (≈ 12.6 µM), an MIC (Klebsiella pneumoniae) of 15 µg/mL (≈ 18.9 µM) and an MIC (Pseudomonas aeruginosa) of 3 µg/mL (≈ 3.78 µM). The MIC (Bacillus subtilis [2]) was 2.5 µg/mL (≈ 3.15 µM), the MIC [3] was 4 µg/mL (≈ 5.04 µM) and the MIC (Enterococcus faecalis) was 5 µg/mL (≈ 6.3 µM). For the same compound, the MIC (Staphylococcus aureus [4]) was 5 µg/mL (≈ 6.3 µM), the MIC (Candida albicans) was 2 µg/mL (≈ 2.52 µM) and the HC10 [5] was 250 µg/mL. For the same compound, the HC50 at 1 h [5] was over 500 µg/mL, the Ratio [6] was over 100 and the Activity (Staphylococcus aureus [7]) was “Active”.
Work on `CCCCCCCCCCCCCCCC(=O)N[C@@H](C)CN(CC(=O)N[C@@H](C)CN(CC(=O)N[C@@H](CCC(=O)O)CN(CC(=O)N[C@@H](CCC(=O)O)CN(CC(=O)N[C@@H](CCC(=O)O)CN(CC(N)=O)C(=O)CC(=O)O)C(=O)CC(=O)O)C(=O)CC(=O)O)C(C)=O)C(C)=O` yielded an MIC (Escherichia coli [1]) of over 100 µg/mL, an MIC (Klebsiella pneumoniae) of over 100 µg/mL and an MIC (Pseudomonas aeruginosa) of over 100 µg/mL. It also gave an MIC (Bacillus subtilis [2]) of over 100 µg/mL, an MIC [3] of over 100 µg/mL and an MIC (Enterococcus faecalis) of over 100 µg/mL. For the same compound, the MIC (Staphylococcus aureus [4]) was over 100 µg/mL, the MIC (Candida albicans) was over 100 µg/mL and the HC10 [5] was 250 µg/mL. The HC50 at 1 h [5] was over 500 µg/mL.
With `CCCCCCCCCCCC(=O)N[C@@H](CCCCN)CN(CC(N)=O)C(=O)CCCN` the MIC (Escherichia coli [1]) was over 50 µg/mL, the MIC (Klebsiella pneumoniae) was over 50 µg/mL and the MIC (Pseudomonas aeruginosa) was over 50 µg/mL. For the same compound, the MIC (Bacillus subtilis [2]) was over 50 µg/mL, the MIC [3] was over 50 µg/mL and the MIC (Enterococcus faecalis) was over 50 µg/mL. It also gave an MIC (Staphylococcus aureus [4]) of over 50 µg/mL, an MIC (Candida albicans) of over 50 µg/mL and an HC10 [5] of 400 µg/mL. For the same compound, the HC50 at 1 h [5] was over 500 µg/mL.
